Measured values as given in EPA's CvTdb concentration-time database.

Tests used:
Assay in all cases: concentration in plasma after dosing
[1] = tested on: Rat; details: dosed: Formamide, 10 mg/kg, iv, Male, F344
[2] = tested on: Rat; details: 3 h; dosed: Formamide; 10 mg/kg; iv; Male; F344
[3] = tested on: Rat; details: 2 h; dosed: Formamide; 10 mg/kg; iv; Male; F344
[4] = tested on: Rat; details: dosed: Formamide, 30 mg/kg, iv, Female, F344
[5] = tested on: Rat; details: 2 h; dosed: Formamide; 10 mg/kg; iv; Male; F344; remark: listed apart in the source
[6] = tested on: Rat; details: dosed: Formamide, 30 mg/kg, iv, Female, F344; remark: listed apart in the source
[7] = tested on: Rat; details: 0.5 h; dosed: Formamide; 10 mg/kg; iv; Female; Harlan Sprague-Dawley
[8] = tested on: Rat; details: dosed: Formamide, 10 mg/kg, iv, Male, F344; remark: listed apart in the source
[9] = tested on: Rat; details: dosed: Formamide, 10 mg/kg, iv, Male, F344; remark: listed apart in the source
[10] = tested on: Rat; details: dosed: Formamide, 10 mg/kg, iv, Male, F344; remark: listed apart in the source
[11] = tested on: Rat; details: 5 h; dosed: Formamide; 10 mg/kg; iv; Male; F344
[12] = tested on: Rat; details: dosed: Formamide, 30 mg/kg, iv, Female, F344; remark: listed apart in the source
[13] = tested on: Rat; details: dosed: Formamide, 10 mg/kg, iv, Male, F344; remark: listed apart in the source
[14] = tested on: Rat; details: dosed: Formamide, 10 mg/kg, iv, Male, F344; remark: listed apart in the source
[15] = tested on: Rat; details: dosed: Formamide, 10 mg/kg, iv, Male, F344; remark: listed apart in the source
[16] = tested on: Rat; details: dosed: Formamide, 10 mg/kg, iv, Male, F344; remark: listed apart in the source
[17] = tested on: Rat; details: 0.5 h; dosed: Formamide; 10 mg/kg; iv; Male; F344
[18] = tested on: Rat; details: 5 h; dosed: Formamide; 10 mg/kg; iv; Male; F344; remark: listed apart in the source
[19] = tested on: Rat; details: dosed: Formamide, 10 mg/kg, iv, Male, F344; remark: listed apart in the source
[20] = tested on: Rat; details: 0.5 h; dosed: Formamide; 30 mg/kg; iv; Female; F344
[21] = tested on: Rat; details: dosed: Formamide, 10 mg/kg, iv, Male, F344; remark: listed apart in the source
[22] = tested on: Rat; details: dosed: Formamide, iv
[23] = tested on: Rat; details: dosed: Formamide, 30 mg/kg, iv, Female, F344; remark: listed apart in the source
[24] = tested on: Rat; details: dosed: Formamide, 10 mg/kg, iv, Male, F344; remark: listed apart in the source
[25] = tested on: Rat; details: dosed: Formamide, 30 mg/kg, iv, Female, F344; remark: listed apart in the source
[26] = tested on: Rat; details: 2 h; dosed: Formamide; 10 mg/kg; iv; Male; F344; remark: listed apart in the source
[27] = tested on: Rat; details: dosed: Formamide, 30 mg/kg, iv, Female, F344; remark: listed apart in the source
[28] = tested on: Rat; details: dosed: Formamide, 10 mg/kg, iv, Female, Harlan Sprague-Dawley
[29] = tested on: Rat; details: 5 h; dosed: Formamide; 10 mg/kg; iv; Male; F344; remark: listed apart in the source
[30] = tested on: Rat; details: dosed: Formamide, 10 mg/kg, iv, Female, F344
[31] = tested on: Rat; details: 2 h; dosed: Formamide; 10 mg/kg; iv; Male; F344; remark: listed apart in the source
[32] = tested on: Rat; details: dosed: Formamide, 10 mg/kg, iv, Female, Harlan Sprague-Dawley; remark: listed apart in the source
[33] = tested on: Rat; details: dosed: Formamide, 10 mg/kg, iv, Male, F344; remark: listed apart in the source
[34] = tested on: Rat; details: dosed: Formamide, 10 mg/kg, iv, Male, F344; remark: listed apart in the source
[35] = tested on: Rat; details: dosed: Formamide, 10 mg/kg, iv, Male, F344; remark: listed apart in the source
[36] = tested on: Rat; details: dosed: Formamide, 10 mg/kg, iv, Male, F344; remark: listed apart in the source
[37] = tested on: Rat; details: dosed: Formamide, 30 mg/kg, iv, Female, F344; remark: listed apart in the source
[38] = tested on: Rat; details: dosed: Formamide, 10 mg/kg, iv, Male, F344; remark: listed apart in the source
[39] = tested on: Rat; details: dosed: Formamide, 10 mg/kg, iv, Male, F344; remark: listed apart in the source
[40] = tested on: Rat; details: 2 h; dosed: Formamide; 10 mg/kg; iv; Male; F344; remark: listed apart in the source
[41] = tested on: Rat; details: dosed: Formamide, 10 mg/kg, iv, Female, F344; remark: listed apart in the source
[42] = tested on: Rat; details: 0.5 h; dosed: Formamide; 10 mg/kg; iv; Female; Harlan Sprague-Dawley; remark: listed apart in the source
[43] = tested on: Rat; details: 5 h; dosed: Formamide; 10 mg/kg; iv; Male; F344; remark: listed apart in the source
[44] = tested on: Rat; details: 0.5 h; dosed: Formamide; 10 mg/kg; iv; Male; F344; remark: listed apart in the source
[45] = tested on: Rat; details: dosed: Formamide, 10 mg/kg, iv, Male, F344; remark: listed apart in the source

NC=O [Formamide]
Details	concentration in plasma [ng/mL]
[1], 0.25 h	6900
[1], 24 h	2900
[4], 0.25 h	17600
[4], 24 h	7700
[6], 5 min	43900
[6], 36 h	2500
[8], 5 min	2100
[8], 36 h	2100
[9], 5 min	11900
[9], 36 h	2000
[10], 5 min	13700
[10], 36 h	3100
[12], 8 h	27500
[12], 12 h	22800
[13], 5 min	11200
[13], 36 h	1400
[14], 8 h	8000
[14], 12 h	6700
[15], 1 h	12700
[15], 3 h	12800
[16], 8 h	8600
[16], 12 h	5100
[19], 10 min	10700
[19], 18 h	2900
[21], 10 min	15400
[21], 18 h	4700
[23], 0.5 h	44700
[23], 48 h	1600
[24], 1 h	13500
[24], 3 h	13300
[25], 8 h	26800
[25], 12 h	22600
[27], 5 min	39500
[27], 36 h	3400
[28], 0.25 h	13000
[28], 24 h	2100
[30], 10 min	12500
[30], 18 h	3300
[32], 0.25 h	14700
[32], 24 h	2900
[33], 1 h	14500
[33], 3 h	12400
[34], 0.25 h	13300
[34], 24 h	3900
[35], 8 h	7100
[35], 12 h	5600
[36], 8 h	5700
[36], 12 h	6800
[37], 0.25 h	16100
[37], 24 h	10100
[38], 8 h	9200
[38], 12 h	6700
[39], 5 min	12900
[39], 36 h	2200
[41], 10 min	8500
[41], 18 h	2900
[45], 1 h	13400
[45], 3 h	11700

Details	concentration in plasma [ng/mL]
[2]	12000
[3]	12400
[5]	13000
[7]	11100
[11]	9600
[17]	13400
[18]	13700
[20]	39700
[26]	14100
[29]	10500
[31]	12600
[40]	12800
[42]	13500
[43]	13400
[44]	11100

concentration in plasma [ng/mL], [22]
Details	Female	Male
0.25 h, 10 mg/kg, F344	–	7100
0.25 h, 10 mg/kg, Harlan Sprague-Dawley	13600	–
0.25 h, 30 mg/kg, F344	37100	–
0.5 h, 10 mg/kg, F344	–	14100
0.5 h, 10 mg/kg, Harlan Sprague-Dawley	9300	–
0.5 h, 30 mg/kg, F344	28200	–
1 h, 10 mg/kg, F344	–	14700
2 h, 10 mg/kg, F344	–	12500
3 h, 10 mg/kg, F344	–	13700
5 h, 10 mg/kg, F344	–	14200
5 h, 10 mg/kg, Harlan Sprague-Dawley	13000	–
5 min, 10 mg/kg, F344	–	11800
5 min, 30 mg/kg, F344	46500	–
8 h, 10 mg/kg, F344	–	8200
8 h, 30 mg/kg, F344	25000	–
10 min, 10 mg/kg, F344	3500	14200
12 h, 10 mg/kg, F344	–	6300
12 h, 30 mg/kg, F344	21400	–
18 h, 10 mg/kg, F344	3400	4000
24 h, 10 mg/kg, F344	–	3800
24 h, 10 mg/kg, Harlan Sprague-Dawley	2300	–
24 h, 30 mg/kg, F344	7900	–
36 h, 10 mg/kg, F344	–	2300
36 h, 30 mg/kg, F344	4300	–
48 h, 30 mg/kg, F344	1200	–
